In patent publication US20220411372A1, “SMALL-MOLECULE INHIBITORS FOR THE B-CATENIN/B-CELL LYMPHOMA 9 PROTEIN-PROTEIN INTERACTION” (H. Lee Moffitt Cancer Center and Research Institute, Inc., priority 2019, published 2022):

What follows are compounds tested against T1, β-catenin/BCL9 PPI (Homo sapiens, UniProt P35222) (assay: AlphaScreen competitive inhibition assay of the β-catenin/BCL9 PPI). Settings: Table 5, inhibitors 54-62; read-out: Ki.
T1 construct: Full-length β-catenin (residues 1-781) were cloned into a pET-28b vector; made in house; host or cells: E. coli BL21 DE3 (β-catenin); BCL9 peptide synthesized by InnoPep Inc
T1 sequence (P35222 1-781): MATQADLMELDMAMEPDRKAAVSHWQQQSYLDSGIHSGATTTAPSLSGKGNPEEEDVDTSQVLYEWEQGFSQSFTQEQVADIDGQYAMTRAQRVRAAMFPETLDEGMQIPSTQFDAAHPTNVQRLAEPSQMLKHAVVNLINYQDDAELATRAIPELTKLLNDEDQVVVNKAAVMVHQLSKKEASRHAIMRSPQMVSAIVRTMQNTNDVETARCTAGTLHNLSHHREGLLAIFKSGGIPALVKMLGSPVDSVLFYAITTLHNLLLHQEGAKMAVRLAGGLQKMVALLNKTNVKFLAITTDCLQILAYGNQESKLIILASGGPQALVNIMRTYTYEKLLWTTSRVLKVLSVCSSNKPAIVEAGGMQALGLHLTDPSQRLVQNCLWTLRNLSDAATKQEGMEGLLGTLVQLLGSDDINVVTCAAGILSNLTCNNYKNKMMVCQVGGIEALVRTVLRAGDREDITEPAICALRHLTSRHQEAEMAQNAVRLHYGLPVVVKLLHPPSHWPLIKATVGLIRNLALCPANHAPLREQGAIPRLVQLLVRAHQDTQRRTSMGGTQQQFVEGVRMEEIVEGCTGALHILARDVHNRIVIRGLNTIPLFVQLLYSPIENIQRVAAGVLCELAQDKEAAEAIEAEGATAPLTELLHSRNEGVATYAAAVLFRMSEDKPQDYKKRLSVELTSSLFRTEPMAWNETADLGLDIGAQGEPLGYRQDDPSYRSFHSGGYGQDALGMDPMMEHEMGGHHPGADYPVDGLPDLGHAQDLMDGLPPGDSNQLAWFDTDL
Assay type: binding
Outline: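 5 nM biotinylated BCL9 and 40 nM His6-β-catenin preincubated 30 min at 4° C in pH 7.4 Hepes buffer with 0.01% Triton X-100, 0.1% BSA, 1% DMSO; inhibitor added 1 h at 4° C, then 10 μg/mL donor/acceptor beads 1 h.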

| Compound | Ki |
| --- | --- |
| CC(C)(Oc1cccc(N2CCC[C@@H](C(=O)N(Cc3ccc(-c4cn[nH]c4)cc3)C3CC3)C2)c1)C(=O)N1CCOCC1 [Compound 56, (R)-N-(4-(1H-pyrazol-4-yl)benzyl)-N-cyclopropyl-1-(3-((2-methyl-1-morpholino-1-oxopropan-2-yl)oxy)phenyl)piperidine-3-carboxamide] | > 90 µM |
| CC(C)(Oc1cccc(N2CCC[C@@H](C(=O)N(Cc3ccc(-c4cn[nH]c4)cc3)C3CC3)C2)c1)C(=O)N1CCCCC1 [Compound 57, (R)-N-(4-(1H-pyrazol-4-yl)benzyl)-N-cyclopropyl-1-(3-((2-methyl-1-oxo-1-(piperidin-1-yl)propan-2-yl)oxy)phenyl)piperidine-3-carboxamide] | > 90 µM |
| CC(C)(Oc1cccc(N2CCC[C@@H](C(=O)N(Cc3ccc(-c4cn[nH]c4)cc3)C3CC3)C2)c1)C(=O)N1C[C@H]2CNC[C@H]2C1 [Compound 58, (3aR,6aS)-5-(2-(3-((R)-3-((4-(1H-pyrazol-4-yl)benzyl)(cyclopropyl)carbamoyl)piperidin-1-yl)phenoxy)-2-methylpropanoyl)octahydropyrrolo[3,4-c]pyrrol-2-ium chloride] | < 30 µM |
| CC(C)(Oc1cccc(N2CCC[C@@H](C(=O)N(Cc3ccc(-c4cn[nH]c4)cc3)C3CC3)C2)c1)C(=O)N1CCC2(CCNC2)C1 (stereo partly drawn) [Compound 59, 7-(2-(3-((R)-3-((4-(1H-pyrazol-4-yl)benzyl)(cyclopropyl)carbamoyl)piperidin-1-yl)phenoxy)-2-methylpropanoyl)-2,7-diazaspiro[4.4]nonan-2-ium chloride] | < 5 µM |
| CC(C)(Oc1cccc(N2CCC[C@@H](C(=O)N(Cc3ccc(-c4cn[nH]c4)cc3)C3CC3)C2)c1)C(=O)N1CC2(CCNCC2)C1 [Compound 60, (R)-2-(2-(3-(3-((4-(1H-pyrazol-4-yl)benzyl)(cyclopropyl)carbamoyl)piperidin-1-yl)phenoxy)-2-methylpropanoyl)-2,7-diazaspiro[3.5]nonan-7-ium 2,2,2-trifluoroacetate] | < 30 µM |
| CC(C)(Oc1cccc(N2CCC[C@@H](C(=O)N(Cc3ccc(-c4cn[nH]c4)cc3)C3CC3)C2)c1)C(=O)N1CCC2(CNC2)C1 [Compound 61, (R)-6-(2-(3-(3-((4-(1H-pyrazol-4-yl)benzyl)(cyclopropyl)carbamoyl)piperidin-1-yl)phenoxy)-2-methylpropanoyl)-2,6-diazaspiro[3.4]octan-2-ium 2,2,2-trifluoroacetate] | < 30 µM |
| CC(C)(Oc1cccc(N2CCC[C@@H](C(=O)N(Cc3ccc(-c4cn[nH]c4)cc3)C3CC3)C2)c1)C(=O)N1CC2(CNC2)C1 [Compound 62, (R)-6-(2-(3-(3-((4-(1H-pyrazol-4-yl)benzyl)(cyclopropyl)carbamoyl)piperidin-1-yl)phenoxy)-2-methylpropanoyl)-2,6-diazaspiro[3.3]heptan-2-ium 2,2,2-trifluoroacetate] | < 90 µM |

Same assay, conditions: Table 8, inhibitors 82-92; read-out: Ki

| Compound | Ki |
| --- | --- |
| O=C([C@@H]1CCCN(c2cccc(OC3(C(=O)N4CCNCC4)CC3)c2)C1)N(Cc1ccc(-c2cn[nH]c2)cc1)C1CC1 [Compound 82, (R)-4-(1-(3-(3-((4-(1H-pyrazol-4-yl)benzyl)(cyclopropyl)carbamoyl)piperidin-1-yl)phenoxy)cyclopropane-1-carbonyl)piperazin-1-ium chloride] | < 10 µM |
| O=C([C@@H]1CCCN(c2cccc(OC3(C(=O)N4CCNCC4)CCCC3)c2)C1)N(Cc1ccc(-c2cn[nH]c2)cc1)C1CC1 [Compound 83, (R)-4-(1-(3-(3-((4-(1H-pyrazol-4-yl)benzyl)(cyclopropyl)carbamoyl)piperidin-1-yl)phenoxy)cyclopentane-1-carbonyl)piperazin-1-ium chloride] | < 90 µM |
| O=C(c1cccc(N2CCC[C@@H](C(=O)N(Cc3ccc(-c4cn[nH]c4)cc3)C3CC3)C2)c1)N1CCNCC1 [Compound 85, (R)-4-(3-(3-((4-(1H-pyrazol-4-yl)benzyl)(cyclopropyl)carbamoyl)piperidin-1-yl)benzoyl)piperazin-1-ium chloride] | < 90 µM |
| O=C(C(Oc1cccc(N2CCC[C@@H](C(=O)N(Cc3ccc(-c4cn[nH]c4)cc3)C3CC3)C2)c1)c1ccccc1)N1CCNCC1 (stereo partly drawn) [Compound 86, 4-(2-(3-((R)-3-((4-(1H-pyrazol-4-yl)benzyl)(cyclopropyl)carbamoyl)piperidin-1-yl)phenoxy)-2-phenylacetyl)piperazin-1-ium chloride] | < 30 µM |
| O=C(C(Cc1ccccc1)Oc1cccc(N2CCC[C@@H](C(=O)N(Cc3ccc(-c4cn[nH]c4)cc3)C3CC3)C2)c1)N1CCNCC1 (stereo partly drawn) [Compound 87, 4-(2-(3-((R)-3-((4-(1H-pyrazol-4-yl)benzyl)(cyclopropyl)carbamoyl)piperidin-1-yl)phenoxy)-3-phenylpropanoyl)piperazin-1-ium chloride] | < 90 µM |
| CC(C)(Oc1cccc(N2CCC[C@@H](C(=O)N(Cc3ccc(-c4cn[nH]c4)cc3OCCN)C3CC3)C2)c1)C(=O)N1CCNCC1 [Compound 89, (R)-4-(2-(3-(3-((2-(2-ammonioethoxy)-4-(1H-pyrazol-4-yl)benzyl)(cyclopropyl)carbamoyl)piperidin-1-yl)phenoxy)-2-methylpropanoyl)piperazin-1-ium chlorine] | < 90 µM |
| CC(C)c1ccc2c(c1)CCN(C(=O)[C@@H]1CCCN(c3cccc(OC(C)(C)C(=O)N4CCNCC4)c3)C1)C2 [Compound 90, (R)-4-(2-(3-(3-(6-isopropyl-1,2,3,4-tetrahydroisoquinoline-2-carbonyl)piperidin-1-yl)phenoxy)-2-methylpropanoyl)piperazin-1-ium chlorine] | < 30 µM |
| CC(C)(Oc1cccc(N2CCC[C@@H](C(=O)N3CCc4cc(-c5ccccc5)ccc4C3)C2)c1)C(=O)N1CCNCC1 [Compound 91, (R)-4-(2-methyl-2-(3-(3-(6-phenyl-1,2,3,4-tetrahydroisoquinoline-2-carbonyl)piperidin-1-yl)phenoxy)propanoyl)piperazin-1-ium chlorine] | < 5 µM |
| CC(C)(Oc1cccc(N2CCC[C@@H](C(=O)N3CCc4cc(-c5cn[nH]c5)ccc4C3)C2)c1)C(=O)N1CCNCC1 [Compound 92, (R)-4-(2-(3-(3-(6-(1H-pyrazol-4-yl)-1,2,3,4-tetrahydroisoquinoline-2-carbonyl)piperidin-1-yl)phenoxy)-2-methylpropanoyl)piperazin-1-ium chloride] | < 90 µM |

Same assay, conditions: Table 9, inhibitors 93-98, racemic; read-out: Ki

| Compound | Ki |
| --- | --- |
| (R)-2-(3-(3-(cyclopropyl(4-isopropylbenzyl)carbamoyl)piperidin-1-yl)phenoxy)-2-methylpropanoic acid [Compound 98] | ≤ 90 µM |

Same assay, conditions: Table 12, inhibitors 109-112; read-out: Ki

| Compound | Ki |
| --- | --- |
| CCOc1cc(-c2cn[nH]c2)ccc1CN(C(=O)[C@@H]1CCCN(c2cccc(OC(C)(C)C(=O)N3CCNCC3)c2)C1)C1CC1 [Compound 109, (R)-4-(2-(3-(3-(Cyclopropyl(2-ethoxy-4-(1H-pyrazol-4-yl)benzyl)carbamoyl)piperidin-1-yl)phenoxy)-2-methylpropanoyl)piperazin-1-ium chloride] | ≤ 30 µM |
| CC(C)Oc1cc(-c2cn[nH]c2)ccc1CN(C(=O)[C@@H]1CCCN(c2cccc(OC(C)(C)C(=O)N3CCNCC3)c2)C1)C1CC1 [Compound 110, (R)-4-(2-(3-(3-(Cyclopropyl(2-isopropoxy-4-(1H-pyrazol-4-yl)benzyl)carbamoyl)piperidin-1-yl)phenoxy)-2-methylpropanoyl)piperazin-1-ium chloride] | ≤ 30 µM |
| CCCOc1cc(-c2cn[nH]c2)ccc1CN(C(=O)[C@@H]1CCCN(c2cccc(OC(C)(C)C(=O)N3CCNCC3)c2)C1)C1CC1 [Compound 111, (R)-4-(2-(3-(3-(Cyclopropyl(2-propoxy-4-(1H-pyrazol-4-yl)benzyl)carbamoyl)piperidin-1-yl)phenoxy)-2-methylpropanoyl)piperazin-1-ium chloride] | ≤ 30 µM |
| CC(C)(Oc1cncc(N2CCC[C@@H](C(=O)N(Cc3ccc(-c4cn[nH]c4)cc3)C3CC3)C2)c1)C(=O)N1CCNCC1 [Compound 112, (R)-4-(2-((5-(3-((4-(1H-pyrazol-4-yl)benzyl)(cyclopropyl)carbamoyl)piperidin-1-yl)pyridin-3-yl)oxy)-2-methylpropanoyl)piperazin-1-ium chloride] | ≤ 30 µM |
